Measurements from ChEMBL document CHEMBL5252665, “The Identification of GPR52 Agonist HTL0041178, a Potential Therapy for Schizophrenia and Related Psychiatric Disorders” (ACS Med Chem Lett, 2023).
Blank lines part the entries; values can stand above or below the molecule they belong to.

Experiments:
[1] = Octanol-water partition coefficient, log D of the compound by chromatographic method; type: physicochemical
[2] = Cmax in Sprague-Dawley rat at 3 mg/kg,po by LC-MS/MS analysis; type: ADME, organism-based; parameters: dose 3 mg/kg, route po; conditions: in vivo
[3] = Oral absorption in Sprague-Dawley rat at 3 mg/kg by LC-MS/MS analysis; type: ADME, organism-based; conditions: in vivo
[4] = Clearance in Sprague-Dawley rat plasma at 1 mg/kg,iv by LC-MS/MS analysis; type: ADME, organism-based
[5] = AUC (0 to infinity) in Sprague-Dawley rat at 3 mg/kg,po by LC-MS/MS analysis; type: ADME, organism-based; parameters: dose 3 mg/kg, route po; conditions: in vivo
[6] = Apparent permeability of compound across apical to basolateral side in dog MDCK-MDR1 cells incubated for 1 hr by LC-MS/MS analysis; type: ADME, cell-based, Canis lupus familiaris
[7] = Oral bioavailability in Sprague-Dawley rat at 3 mg/kg by LC-MS/MS analysis; type: ADME, organism-based; conditions: in vivo
[8] = Metabolic stability in rat liver microsomes assessed as intrinsic clearance preincubation with compound followed by NADPH addition and measured after 45 mins by LC-MS/MS analysis; type: ADME, Microsome; conditions: read-out: CLH
[9] = Metabolic stability in human liver microsomes assessed as intrinsic clearance preincubation with compound followed by NADPH addition and measured after 45 mins by LC-MS/MS analysis; type: ADME, Microsome; conditions: read-out: CLH
[10] = Unbound brain-to-plasma concentration ratio in Sprague-Dawley rat plasma at 1 mg/kg,iv by LC-MS/MS analysis; type: ADME, organism-based; conditions: brain and plasma, read-out: K(p,uu,brain)
[11] = Half life in Sprague-Dawley rat at 1 mg/kg,iv by LC-MS/MS analysis; type: ADME, organism-based; conditions: in vivo
[12] = AUC (0 to infinity) in Sprague-Dawley rat at 1 mg/kg,iv by LC-MS/MS analysis; type: ADME, organism-based; parameters: dose 1 mg/kg, route iv; conditions: in vivo
[13] = Volume of distribution at steady state in Sprague-Dawley rat at 1 mg/kg,iv by LC-MS/MS analysis; type: ADME, organism-based; conditions: in vivo, read-out: Vdss
[14] = Lipophilicity, logP of the compound by shake flask assay; type: physicochemical; conditions: octanol/water
[15] = AUC (0 to infinity) in cynomolgus monkey at 3 mg/kg,po by LC-MS/MS analysis; type: ADME, organism-based, Macaca fascicularis; parameters: dose 3 mg/kg, route po; conditions: in vivo
[16] = Terminal brain concentration in Sprague-Dawley rat model of amphetamine-induced hyperlocomotion activity at 10 mg/kg, po measured after 2 hrs by LC-MS/MS analysis; type: ADME, organism-based; conditions: read-out: Clast
[17] = Cmax in CD-1 mouse at 3 mg/kg,po by LC-MS/MS analysis; type: ADME, organism-based; parameters: dose 3 mg/kg, route po; conditions: in vivo
[18] = Clearance in CD-1 mouse plasma at 1 mg/kg,iv by LC-MS/MS analysis; type: ADME, organism-based
[19] = Half life in CD-1 mouse at 1 mg/kg,iv by LC-MS/MS analysis; type: ADME, organism-based; conditions: in vivo
[20] = Oral absorption in cynomolgus monkey at 3 mg/kg by LC-MS/MS analysis; type: ADME, organism-based, Macaca fascicularis; conditions: in vivo, read-out: Drug absorption
[21] = Terminal free brain concentration in Sprague-Dawley rat model of amphetamine-induced hyperlocomotion activity at 10 mg/kg, po measured after 2 hrs by LC-MS/MS analysis; type: ADME, organism-based; conditions: in vivo
[22] = Volume of distribution at steady state in cynomolgus monkey at 1 mg/kg,iv by LC-MS/MS analysis; type: ADME, organism-based, Macaca fascicularis; conditions: in vivo, read-out: Vdss
[23] = AUC (0 to infinity) in CD-1 mouse at 3 mg/kg,po by LC-MS/MS analysis; type: ADME, organism-based; parameters: dose 3 mg/kg, route po; conditions: in vivo
[24] = Oral absorption in CD-1 mouse at 3 mg/kg by LC-MS/MS analysis; type: ADME, organism-based; conditions: in vivo
[25] = AUC (0 to infinity) in cynomolgus monkey at 1 mg/kg,iv by LC-MS/MS analysis; type: ADME, organism-based, Macaca fascicularis; parameters: dose 1 mg/kg, route iv; conditions: in vivo
[26] = Volume of distribution at steady state in CD-1 mouse at 1 mg/kg,iv by LC-MS/MS analysis; type: ADME, organism-based; conditions: in vivo, read-out: Vdss
[27] = Clearance in cynomolgus monkey plasma at 1 mg/kg,iv by LC-MS/MS analysis; type: ADME, organism-based, Macaca fascicularis
[28] = Oral bioavailability in cynomolgus monkey at 3 mg/kg by LC-MS/MS analysis; type: ADME, organism-based, Macaca fascicularis; conditions: in vivo
[29] = Cmax in cynomolgus monkey at 3 mg/kg,po by LC-MS/MS analysis; type: ADME, organism-based, Macaca fascicularis; parameters: dose 3 mg/kg, route po; conditions: in vivo
[30] = Half life in cynomolgus monkey at 1 mg/kg,iv by LC-MS/MS analysis; type: ADME, organism-based, Macaca fascicularis; conditions: in vivo
[31] = AUC (0 to infinity) in CD-1 mouse at 1 mg/kg,iv by LC-MS/MS analysis; type: ADME, organism-based; parameters: dose 1 mg/kg, route iv; conditions: in vivo
[32] = Oral bioavailability in CD-1 mouse at 3 mg/kg by LC-MS/MS analysis; type: ADME, organism-based; conditions: in vivo

SMILES: O=C1NCCc2c1cnn2-c1cc(Cc2cccc(C(F)(F)F)c2)ccn1
chromatographic logD [1]: 4.9
Cmax [2]: 143 ng/mL
Fa [3]: > 100%
clearance [4]: 39 mL/min/kg
AUC(0-inf) [5]: 709 ng·h/mL
Papp A→B at 1 h [6]: 46 ×10⁻⁶ cm/s
bioavailability [7]: 54%
microsomal CLint [8]: 46 µL/min/mg
microsomal CLint [9]: < 10 µL/min/mg
Kp uu [10]: 0.4
half-life [11]: 0.6 h
AUC(0-inf) [12]: 440 ng·h/mL
Vd [13]: 1.5 L/kg

SMILES: CN1CCc2c(cnn2-c2cc(Cc3cc(F)cc(C(F)(F)F)c3)ccn2)C1=O
chromatographic logD [1]: 5.8
Papp A→B at 1 h [6]: 30 ×10⁻⁶ cm/s
microsomal CLint [8]: 33 µL/min/mg
microsomal CLint [9]: 62 µL/min/mg

SMILES: Cc1nn(-c2ccnc(Cc3cc(F)cc(C(F)F)c3)c2)c2c1C(=O)NCC2
chromatographic logD [1]: 3.6
Papp A→B at 1 h [6]: 28 ×10⁻⁶ cm/s
microsomal CLint [8]: 71 µL/min/mg
microsomal CLint [9]: 32 µL/min/mg

SMILES: O=C1NCCc2c1cnn2-c1ccnc(Cc2cc(F)c(Cl)c(C(F)(F)F)c2)c1
chromatographic logD [1]: 4.6
microsomal CLint [8]: 57 µL/min/mg
microsomal CLint [9]: 24 µL/min/mg

SMILES: O=C1NCCc2c1cnn2-c1cncc(Cc2cc(F)cc(C(F)(F)F)c2)c1
chromatographic logD [1]: 3.8
logP [14]: 4
Papp A→B at 1 h [6]: 38 ×10⁻⁶ cm/s
microsomal CLint [8]: 25 µL/min/mg
microsomal CLint [9]: < 10 µL/min/mg

SMILES: Cc1nn(-c2cncc(Cc3cc(F)cc(C(F)(F)F)c3)c2)c2c1C(=O)NCC2
chromatographic logD [1]: 4.1
Papp A→B at 1 h [6]: 48 ×10⁻⁶ cm/s
microsomal CLint [8]: 63 µL/min/mg
microsomal CLint [9]: 27 µL/min/mg

SMILES: O=C1CCCc2c1cnn2-c1cc(Cc2cccc(C(F)(F)F)c2)ccn1
chromatographic logD [1]: 6.7
Papp A→B at 1 h [6]: 25 ×10⁻⁶ cm/s
microsomal CLint [8]: 120 µL/min/mg
microsomal CLint [9]: 50 µL/min/mg

SMILES: Cc1nn(-c2ccnc(Cc3cc(F)cc(OC(F)F)c3)c2)c2c1C(=O)NCC2
chromatographic logD [1]: 3.9
Papp A→B at 1 h [6]: 32 ×10⁻⁶ cm/s
microsomal CLint [8]: 63 µL/min/mg
microsomal CLint [9]: 34 µL/min/mg

SMILES: O=C1NCCc2c1cnn2-c1ccnc(Cc2cc(F)cc(C(F)F)c2)c1
chromatographic logD [1]: 3.3
Papp A→B at 1 h [6]: 30 ×10⁻⁶ cm/s
microsomal CLint [8]: 37 µL/min/mg
microsomal CLint [9]: 15 µL/min/mg

Next, values leading:

chromatographic logD [1]: 4
SMILES: O=C1NCCc2c1nnn2-c1ccnc(Cc2cc(F)cc(C(F)(F)F)c2)c1

chromatographic logD [1]: 4
SMILES: O=C1NCc2c1cnn2-c1ccnc(Cc2cc(F)cc(C(F)(F)F)c2)c1

chromatographic logD [1]: 4.2
microsomal CLint [8]: 102 µL/min/mg
microsomal CLint [9]: 21 µL/min/mg
SMILES: O=C1NCCCc2c1cnn2-c1ccnc(Cc2cc(F)cc(C(F)(F)F)c2)c1

chromatographic logD [1]: 4.4
Papp A→B at 1 h [6]: 46 ×10⁻⁶ cm/s
microsomal CLint [8]: 40 µL/min/mg
microsomal CLint [9]: 31 µL/min/mg
SMILES: Cc1nn(-c2ccnc(Cc3cc(F)cc(C(F)(F)F)c3)c2)c2c1C(=O)NCC2

chromatographic logD [1]: 3.9
AUC [15]: 6327 ng·h/mL
concentration at 2 h [16]: 1560 nM
logP [14]: 4.2
Cmax [17]: 486 ng/mL
clearance [18]: 6 mL/min/kg
Cmax [2]: 285 ng/mL
half-life [19]: 3.4 h
Fa [3]: 52%
Fa [20]: 85%
clearance [4]: 16 mL/min/kg
AUC(0-inf) [5]: 1260 ng·h/mL
Drug uptake(free) [21]: 41.2 nM
Vd [22]: 1.4 L/kg
Papp A→B at 1 h [6]: 48 ×10⁻⁶ cm/s
bioavailability [7]: 40%
microsomal CLint [8]: 25 µL/min/mg
microsomal CLint [9]: 11 µL/min/mg
AUC(0-inf) [23]: 5910 ng·h/mL
Kp uu [10]: 0.35
Fa [24]: 80%
AUC [25]: 7854 ng·h/mL
Vd [26]: 1.5 L/kg
clearance [27]: 2 mL/min/kg
F [28]: 81%
Cmax [29]: 581 ng/mL
half-life [30]: 8 h
AUC(0-inf) [31]: 2610 ng·h/mL
half-life [11]: 0.8 h
AUC(0-inf) [12]: 1020 ng·h/mL
Vd [13]: 1 L/kg
bioavailability [32]: 95%
SMILES: O=C1NCCc2c1cnn2-c1ccnc(Cc2cc(F)cc(C(F)(F)F)c2)c1

chromatographic logD [1]: 5.1
logP [14]: 3.1
Papp A→B at 1 h [6]: 32 ×10⁻⁶ cm/s
microsomal CLint [8]: 30 µL/min/mg
microsomal CLint [9]: 15 µL/min/mg
SMILES: O=C1NCCc2c1cnn2-c1cc(Cc2cc(F)cc(C(F)(F)F)c2)ccn1

chromatographic logD [1]: 5
microsomal CLint [8]: 48 µL/min/mg
microsomal CLint [9]: < 10 µL/min/mg
SMILES: O=C1NCCc2c1cnn2-c1cccc(Cc2cc(F)cc(C(F)(F)F)c2)c1

chromatographic logD [1]: 4.4
SMILES: O=C1NCCc2nn(-c3ccnc(Cc4cc(F)cc(C(F)(F)F)c4)c3)cc21
